Experimental data: patent publication US8163906B2, “Dihydroquinone and dihydronaphthridine inhibitors of JNK” (Roche Palo Alto, LLC, priority 2007, dated 2012)
pIC50: −log10 of the molar value.

Key:
Human JNK2α2 = Human JNK2α2 (Homo sapiens, UniProt P45984); experiment: JNK assay in vitro, phosphorylation of GST-ATF2 with [γ-33P] ATP (JNK2); type: biochemical; settings: ATP at Km (8 μM), 1 μM ATF2, 30° C. 30 min
Description: (§1) JNK activity was measured by phosphorylation of GST-ATF2 (19-96) with [γ-^33P] ATP. […] Human JNK2α2 assay contains 1 nM enzyme, 1 μM ATF2, 8 μM ATP with 1 uCi [γ-^33P] ATP. Human JNK1α1 assay contains 2 nM enzyme, 1 μM ATF2, 6 μM ATP with 1 μCi [γ-^33P] ATP. […] ATP. The enzyme assay was carried out in the presence or absence of several compound concentrations. JNK and compound were pre-incubated for 10 min., followed by initiation of the enzymatic reaction by adding ATP and the substrate. The reaction mixture was incubated at 30° C. for 30 min. […] The incorporation of ^33P into ATF2 was quantified on a microplate scintillation counter (Packard Topcount). Compound inhibition potency on JNK was measured by IC50 value generated from ten concentration inhibition curves fitted into the 3-parameter model: % inhibition=Maximum/(1+(IC50/[Inhibitor])^slope). Data were analyzed on Microsoft Excel for parameter estimation.

Human JNK1α1 = Human JNK1α1 (Homo sapiens, UniProt P45983); experiment: JNK assay in vitro, phosphorylation of GST-ATF2 with [γ-33P] ATP (JNK1); type: biochemical; settings: ATP at Km (6 μM), 1 μM ATF2, 30° C. 30 min; read-out: IC50 vs. JNK1
Description: as §1

Chain of Human JNK2α2 (P45984 whole entry): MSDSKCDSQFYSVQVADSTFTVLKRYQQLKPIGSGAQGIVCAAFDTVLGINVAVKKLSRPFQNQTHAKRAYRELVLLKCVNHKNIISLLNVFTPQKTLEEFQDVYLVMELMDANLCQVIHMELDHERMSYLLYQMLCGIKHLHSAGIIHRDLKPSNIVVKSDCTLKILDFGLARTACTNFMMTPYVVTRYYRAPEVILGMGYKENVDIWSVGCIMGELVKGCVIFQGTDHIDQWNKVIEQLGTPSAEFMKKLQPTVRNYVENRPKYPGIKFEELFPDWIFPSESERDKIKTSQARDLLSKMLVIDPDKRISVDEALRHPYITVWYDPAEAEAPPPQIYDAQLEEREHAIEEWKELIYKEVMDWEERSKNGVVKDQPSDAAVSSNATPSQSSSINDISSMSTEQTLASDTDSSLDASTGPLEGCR
Chain of Human JNK1α1 (P45983 1-384 isoform P45983-2): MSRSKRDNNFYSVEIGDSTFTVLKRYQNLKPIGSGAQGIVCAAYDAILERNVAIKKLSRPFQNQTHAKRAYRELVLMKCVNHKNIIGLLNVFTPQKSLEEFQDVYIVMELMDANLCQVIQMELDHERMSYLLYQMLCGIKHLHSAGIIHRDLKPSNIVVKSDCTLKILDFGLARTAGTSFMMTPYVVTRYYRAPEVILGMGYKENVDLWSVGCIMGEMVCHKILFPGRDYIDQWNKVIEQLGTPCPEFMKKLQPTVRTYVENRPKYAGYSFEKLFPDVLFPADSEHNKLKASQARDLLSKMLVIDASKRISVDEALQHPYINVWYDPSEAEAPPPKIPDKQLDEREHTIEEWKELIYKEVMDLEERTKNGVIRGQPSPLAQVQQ

SMILES	pIC50 (Human JNK2α2)	pIC50 (Human JNK1α1)	melting point [°C]
O=c1c(Cc2ccccc2)c(-c2ncco2)n(-c2ccccc2)c2cc(Cl)ccc12 [Compound 140, 3-benzyl-7-chloro-2-oxazol-2-yl-1-phenyl-1H-quinolin-4-one]			219 to 220
COC(=O)c1c(CN2CCS(=O)(=O)CC2)c(=O)c2ccc(F)cc2n1-c1ccccc1 [Compound 132]			119 to 120
CCNC(=O)c1ccc(Cc2c(C(=O)OC)n(-c3ccccc3)c3nc(C)ccc3c2=O)cn1 [Compound 101, 3-(6-Ethylcarbamoyl-pyridin-3-ylmethyl)-7-methyl-4-oxo-1-phenyl-1,4-dihydro[1,8]naphthyridine-2-carboxylic Acid Methyl Ester]			208 to 209
COC(=O)c1c(CN2CCOCC2)c(=O)c2ccc(F)cc2n1-c1ccccc1 [Compound 123]			169 to 170
COC(=O)c1c(Cc2ccc(S(C)(=O)=O)nc2)c(=O)c2ccc(C)nc2n1-c1ccccc1 [Compound 92, 3-(6-Methanesulfonyl-pyridin-3-ylmethyl)-7-methyl-4-oxo-1-phenyl-1,4-dihydro[1,8]naphthyridine-2-carboxylic Acid Methyl Ester]			217 to 218
COC(=O)c1c(Cc2ccc(Cl)nc2)c(=O)c2ccc(C)nc2n1-c1ccccc1 [Compound 83, 3-(6-chloro-pyridin-3-ylmethyl)-7-methyl-4-oxo-1-phenyl-1,4-dihydro[1,8]naphthyridine-2-carboxylic acid methyl ester]			220 to 220.5
COC(=O)c1c(Cc2ccc(OC)nc2)c(=O)c2ccc(C)nc2n1-c1ccccc1 [Compound 102, 3-(6-Methoxypyridin-3-ylmethyl)-7-methyl-4-oxo-1-phenyl-1,4-dihydro[1,8]naphthridine-2-carboxylic Acid Methyl Ester]			176 to 177
COC(=O)c1c(CN2CCC(C#N)CC2)c(=O)c2ccc(F)cc2n1-c1ccccc1 [Compound 136]			159 to 160
COC(=O)c1c(CN2CCC(S(C)(=O)=O)CC2)c(=O)c2ccc(F)cc2n1-c1ccccc1 [Compound 126, 7-fluoro-3-(4-methanesulfonyl-piperidin-1-ylmethyl)-4-oxo-1-phenyl-1,4-dihydro-quinoline-2-carboxylic acid methyl ester]			190 to 191
CCOC(=O)C1CCN(Cc2c(C(=O)OC)n(-c3ccccc3)c3cc(F)ccc3c2=O)CC1 [Compound 133]			136 to 137
C=CCn1c(C(=O)OC)c(Cc2ccc(S(C)(=O)=O)cc2)c(=O)c2ccc(C)nc21 [Compound 139]			168 to 169
COC(=O)c1c(CN2CCN(S(C)(=O)=O)CC2)c(=O)c2ccc(F)cc2n1-c1ccccc1 [Compound 131]			205 to 207
COC(=O)c1c(Cc2ccc(S(=O)(=O)N3CCN(C(=O)OC(C)(C)C)CC3)cc2)c(=O)c2ccc(Cl)cc2n1-c1ccccc1 [Compound 63, 3-[4-(4-tert-Butoxycarbonyl-piperazine-1-sulfonyl)-benzyl]-7-chloro-4-oxo-1-phenyl-1,4-dihydroquinoline-2-carboxylic acid methyl ester]	6.67	7.01	
COC(=O)c1c(CN2CCn3c(nnc3C(F)(F)F)C2)c(=O)c2ccc(F)cc2n1-c1ccccc1 [Compound 134]			107 to 110
COCCOC(=O)c1c(Cc2ccccc2)c(=O)c2ccc(F)cc2n1-c1ccccc1 [Compound 130, 3-Benzyl-7-fluoro-4-oxo-1-phenyl-1,4-dihydro-quinoline-2-carboxylic acid 2-methoxy-ethyl ester]			168 to 169
COC(=O)c1c(Cc2ccc(C(=O)N(C)C)nc2)c(=O)c2ccc(C)nc2n1-c1ccccc1 [Compound 103, 3-(6-Dimethylcarbamoyl-pyridin-3-ylmethyl)-7-methyl-4-oxo-1-phenyl-1,4-dihydro[1,8]naphthyridine-2-carboxylic Acid Methyl Ester]			235 to 236
CNS(=O)(=O)c1ccc(Cc2c(C(=O)OC)n(-c3ccccc3)c3cc(Cl)ccc3c2=O)cc1 [Compound 44, 7-Chloro-3-(4-methylsulfamoyl-benzyl)-4-oxo-1-phenyl-1,4-dihydroquinoline-2-carboxylic acid methyl ester]		7.31	

Results, then the molecule that gave them:

pIC50 (Human JNK2α2)	pIC50 (Human JNK1α1)	melting point [°C]	SMILES
6.86	7.34		COC(=O)c1c(Cc2ccc(S(=O)(=O)NCC(O)CO)cc2)c(=O)c2ccc(Cl)cc2n1-c1ccccc1 (centres unmarked) [Compound 46, 7-chloro-3-[4-(2,3-dihydroxy-propylsulfamoyl)-benzyl]-4-oxo-1-phenyl-1,4-dihydroquinoline-2-carboxylic acid methyl ester]
		211 to 212	COC(=O)c1c(Cc2ccc(S(=O)(=O)N3CCNCC3(C)C)cc2)c(=O)c2ccc(F)cc2n1-c1ccccc1.Cl
		163 to 164	COC(=O)c1c(Cc2ccc(SCCO)cc2)c(=O)c2ccc(F)cc2n1-c1ccccc1 [Compound 111]
		193.6 to 194.9	COC(=O)c1c(Cc2ccc(S(=O)(=O)C(C)CO)cc2)c(=O)c2ccc(F)cc2n1-c1ccccc1 (centres unmarked) [Compound 118]
		179 to 180	CCOC(=O)c1c(Cc2ccccc2)c(=O)c2ccc(Cl)cc2n1-c1ccccc1 [Compound 121]
		189 to 191.1	COC(=O)c1c(Cc2ccc(C(=O)CBr)cc2)c(=O)c2ccc(C)nc2n1-c1ccccc1 [Compound 89, 3-[4-(2-bromoacetyl)-benzyl]-7-methyl-4-oxo-1-phenyl-1,4-dihydro-[1,8]naphthyridine-2-carboxylic acid methyl ester]
		170 to 173	COC(=O)c1c(Cc2ccc(C(=O)NCCO)cc2)c(=O)c2ccc(C(F)(F)F)nc2n1-c1ccccc1 [Compound 116]
		165 to 166	COC(=O)c1c(Cc2ccc(S(=O)(=O)CCO)cc2)c(=O)c2ccc(F)cc2n1-c1ccccc1 [Compound 112]
6.79	7.28		COC(=O)c1c(Cc2ccc(S(=O)(=O)N3CCOCC3)cc2)c(=O)c2ccc(Cl)cc2n1-c1ccccc1 [Compound 31, 7-Chloro-3-[4-(morpholine-4-sulfonyl)-benzyl]-4-oxo-1-phenyl-1,4-dihydroquinoline-2-carboxylic acid methyl ester]
		195.9 to 197.2	COC(=O)c1c(Cc2ccc(S(=O)(=O)C(C)CO)cc2)c(=O)c2ccc(C)nc2n1-c1ccccc1 (centres unmarked) [Compound 119]
5.69	6.22		COC(=O)C(=O)NS(=O)(=O)c1ccc(Cc2c(C(=O)OC)n(-c3ccccc3)c3cc(Cl)ccc3c2=O)cc1 [Compound 64, 7-Chloro-3-[4-(methoxyoxalyl-sulfamoyl)-benzyl]-4-oxo-1-phenyl-1,4-dihydroquinoline-2-carboxylic acid methyl ester]
		200 to 201	COC(=O)c1c(Cc2ccccc2)c(=O)c2ccc(Cl)cc2n1-c1ccccc1 [Compound 120]
		116 to 117	COC(=O)c1c(Cc2ccc(S(=O)(=O)N3CCN(C(=O)OC(C)(C)C)CC3(C)C)cc2)c(=O)c2ccc(F)cc2n1-c1ccccc1 [Compound 113]
		206 to 207	COC(=O)c1c(Cc2cnc(OC)nc2)c(=O)c2ccc(F)cc2n1-c1ccccc1 [Compound 125]
6.08	6.61		CC(=O)c1c(Cc2ccc(S(=O)(=O)NCC(C)(C)O)cc2)c(=O)c2ccc(Cl)cc2n1-c1ccccc1 [Compound 88, 3-[4-(2-hydroxy-2-methylpropylsulfonamoyl)benzyl]-4-oxo-7-chloro-1-phenyl-2-acetyl-1,4-dihydroquinoline]
5.30	5.79		COC(=O)c1c(Cc2ccc(S(=O)(=O)NCCO[Si](C)(C)C(C)(C)C)cc2)c(=O)c2ccc(Cl)cc2n1-c1ccccc1 [Compound 60, 3-{4-[2-(tert-Butyl-dimethyl-silanyloxy)-ethylsulfamoyl]-benzyl}-7-chloro-4-oxo-1-phenyl-1,4-dihydroquinoline-2-carboxylic acid methyl ester]
		214 to 215	COC(=O)c1c(Cc2ccc(S(=O)(=O)N3CCNCC3)cc2)c(=O)c2ccc(F)cc2n1-c1ccccc1.Cl
6.65		177 to 178	COC(=O)c1ccc(Cc2c(C(=O)OC)n(-c3ccccc3)c3nc(C)ccc3c2=O)cn1 [Compound 100, 3-(6-Methoxycarbonyl-pyridin-3-ylmethyl)-7-methyl-4-oxo-1-phenyl-1,4-dihydro[1,8]naphthyridine-2-carboxylic Acid Methyl Ester]
7.21	7.65		COC(=O)c1c(Cc2ccc(S(=O)(=O)N(C)CCO)cc2)c(=O)c2ccc(Cl)cc2n1-c1ccccc1 [Compound 59, 7-Chloro-3-{4-[(2-hydroxyethyl)-methyl-sulfamoyl]-benzyl}-4-oxo-1-phenyl-1,4-dihydroquinoline-2-carboxylic acid methyl ester]
		218 to 219	COC(=O)c1c(Cc2ccc(C#N)cc2)c(=O)c2ccc(F)cc2n1-c1ccccc1 [Compound 124]
		120 to 121	COC(=O)c1c(Cc2ccc(S(=O)(=O)N3CCN(C(=O)OC(C)(C)C)CC3)cc2)c(=O)c2ccc(F)cc2n1-c1ccccc1 [Compound 108]
		193 to 195	COC(=O)c1c(Cc2ccc(S(C)(=O)=O)cc2)c(=O)c2ccc(C(F)(F)F)nc2n1-c1ccccc1 [Compound 115]
